Experimental data published in patent publication US20130143886A1, “METHODS FOR PRESERVING AND/OR INCREASING RENAL FUNCTION USING XANTHINE OXIDOREDUCTASE INHIBITORS” (priority 2006, published 2013).
Marks after values point to notes of the source that are not given here.

What was measured:
[1] = system: hyperuricemic gout patients; test: FOCUS long-term open-label study: eGFR, serum creatinine and serum urate; type: in vivo, human; conditions: for GFR (estimated by MDRD, mean) / sCr (mean) / sUA (mean): all subjects
Description: The objective of this study was to assess the long-term renal function effects, measured as estimated GFR (eGFR), in a cohort of hyperuricemic gout patients treated febuxostat. Febuxostat was administered at a dosing regimen that chronically maintained a serum urate level (sUA) of <6.0 mg/dL. Of 145 subjects completing a 28-day, double-blind, placebo-controlled trial (See, Becker M A, Schumacher H R, Jr., Wortmann R L, MacDonald P A, Palo […], et al., “Febuxostat, a novel nonpurine selective inhibitor of xanthine oxidase: a twenty-eight-day, multicenter, phase II, randomized, double-blind, placebo-controlled, dose-response clinical trial examining safety and efficacy in patients with gout.” Arthritis and rheumatism, March: 52(3):916-23 (2005)), 116 enrolled in the long-term, 5.5 year Febuxostat Open-label Clinical trial of Urate-lowering efficacy and […] (FOCUS) study. Baseline data were collected upon entry to the initial 28-day trial. Subjects initially received febuxostat 80 mg/day; between weeks 4 to 24 the dose of febuxostat could be titrated to 40 or 120 mg/day to maintain a sUA between <6.0 mg/dL but not lower than 3.0 mg/dL. Age 18 to 85 years with a history or presence of gout as defined by the American College of Rheumatology (Wallace S L, Robinson […], Yu T F, “Preliminary criteria for the classification of the acute arthritis of primary gout.” Arthritis and rheumatism. 1977 April; 20(3):895-900 (1977)). sUA level of ≧8.0 mg/dL at screening for the initial 28-day, double-blind study. […] GFR was estimated (eGFR) using the Modification of Diet in Renal Disease (MDRD) equation shown below: […] otherwise, S=0.742 if subject is female and 1 if male. The predictors, time (year), average sUA on study drug, baseline eGRF, and sUA change from baseline were evaluated for a relationship to eGFR change from baseline using a repeated measures linear model. Backwards selection (p=0.1) was used to reduce the model down to those predictors that best explained the eGRF change from baseline.

[2] = system: hyperuricemic gout patients; test: FOCUS long-term open-label study: safety
[3] = adverse events, N = 116, PY = 385.6
[4] = serious adverse events, N = 116, PY = 385.6

## Cc1nc(-c2ccc(OCC(C)C)c(C#N)c2)sc1C(=O)O [febuxostat, 2-[3-cyano-4-(2-methylpropoxy)phenyl]-4-methylthiazole-5-carboxylic acid]
[1]; 5-year study period
  Measures of renal function (GFR estimated by MDRD and sCr) (in words): stable over the 5-year study period
[1]; 18 subjects who completed FOCUS and enrolled in another febuxostat study
  Baseline eGFR in a subsequent febuxostat study vs FOCUS baseline (in words): all but 1 of these subjects had a baseline eGRF in the new study that was higher
[1]; Year 1 (n = 115)
  GFR (estimated by MDRD, mean): 65.7 mL/min
  sCr (mean): 1.2 mg/dL
[1]; Year 1 (n = 115), excludes initial 28-day trial
  sUA (mean): 5.1 mg/dL
[1]; Year 2 (n = 84)
  GFR (estimated by MDRD, mean): 66.0 mL/min
  sCr (mean): 1.2 mg/dL
  sUA (mean): 5.1^b mg/dL
[1]; Year 3 (n = 71)
  GFR (estimated by MDRD, mean): 63.2 mL/min
  sCr (mean): 1.3 mg/dL
  sUA (mean): 5.0 mg/dL
[1]; Year 4 (n = 67)
  GFR (estimated by MDRD, mean): 64.2 mL/min
  sCr (mean): 1.3 mg/dL
  sUA (mean): 4.7^b mg/dL
[1]; Year 5 (n = 60)
  GFR (estimated by MDRD, mean): 65.0 mL/min
  sCr (mean): 1.3 mg/dL
  sUA (mean): 4.8 mg/dL
[1]; baseline GFR <60, Year 1
  mean serum urate (sUA): 5.1 mg/dL
[1]; baseline GFR <60, Year 2
  mean serum urate (sUA): 4.8 mg/dL
[1]; baseline GFR <60, Year 3
  mean serum urate (sUA): 4.8 mg/dL
[1]; baseline GFR <60, Year 4
  mean serum urate (sUA): 4.5 mg/dL
[1]; baseline GFR <60, Year 5
  mean serum urate (sUA): 4.6 mg/dL
[1]; baseline GFR ≧60, Year 1
  mean serum urate (sUA): 5.2 mg/dL
[1]; baseline GFR ≧60, Year 2
  mean serum urate (sUA): 5.1 mg/dL
[1]; baseline GFR ≧60, Year 3
  mean serum urate (sUA): 5.1 mg/dL
[1]; baseline GFR ≧60, Year 4
  mean serum urate (sUA): 4.7 mg/dL
[1]; baseline GFR ≧60, Year 5
  mean serum urate (sUA): 4.9 mg/dL
[1]; limited data obtained during Year 6
  eGFR benefit (in words): even greater evidence of eGFR benefit
[1]; modeling, repeated measures linear model
  Predicted eGFR improvement for each 1.0 mg/dL reduction in sUA: 1.0 mL/min
[1]; p=0.02
  Relationship of sUA reduction from baseline to eGFR (in words): correlated with greater improvements in eGFR over time
[1]; throughout the study, regardless of baseline eGFR
  Maintenance of sUA: < 6.0 mg/dL
[2]; 21/116 subjects
  Subjects reporting serious adverse events (SAEs): 18%
[2]; [3]
  Athralgia, rate: 13.0 per 100 PY
  Diarrhea, rate: 7.8 per 100 PY
  Headaches, rate: 20.5 per 100 PY
  Influenza viral infections, rate: 7.3 per 100 PY
  Limb injuries, rate: 5.4 per 100 PY
  Liver function analyses, rate: 6.3 per 100 PY
  Lower respiratory tract infections, rate: 8.8 per 100 PY
  Musculoskeletal pain, rate: 23.6 per 100 PY
  Paresthesias and dysesthesias, rate: 6.2 per 100 PY
  Upper respiratory tract infections, rate: 37.8 per 100 PY
[2]; in vivo
  Deaths during the study: No subjects died
[2]; [4]
  Cardiac disorders, rate: 1.6 per 100 PY
  Gastrointestinal disorders, rate: 0.8 per 100 PY
  General disorders and administration site conditions, rate: 0.3 per 100 PY
  Hepatobiliary disorders, rate: 0.5 per 100 PY
  Infections and infestations, rate: 1.3 per 100 PY
  Injury, poisoning and procedural complications, rate: 1.0 per 100 PY
  Musculoskeletal and connective tissue disorders, rate: 1.6 per 100 PY
  Neoplasms - bening, malignant and unspecified, rate: 1.0 per 100 PY
  Nervous system disorders, rate: 0.5 per 100 PY
  Psychiatric disorders, rate: 0.3 per 100 PY
  Renal and urinary disorders, rate: 0.3 per 100 PY
[2]; subjects of 116 (Ninety-one percent)
  Subjects reporting at least one AE during the study: 106/116
[2]; throughout the range of renal function encountered
  Reported rates of adverse events across renal function (in words): no quantitative difference
